# Test results taken from patent US20240247289A1, “ANTIBIOTIC FREE FERMENTATIONS, SYSTEMS AND METHODS FOR ACHIEVING ANTIBIOTIC FREE FERMENTATIONS, AND FE[…]-PRODUCTS GENERATED BY ANTIBIOTIC FREE FERMENTATIONS” (POET Research, Inc., priority 2023, published 2024).
# What was measured:
# Saccharomyces cerevisiae [1] = conditions: cook process fermentation, infected
# Procedure: (§1) Saccharomyces cerevisiae, was added to a yeast propagation set up as follows. Liquefied corn slurry acquired from a biorefinery was diluted in an appropriate ratio to obtain slurry (mash) with 20 percent dry solids (including the solids contributed by the pre-blend water). The pH of the slurry liquefact was approximately 5.0-5.5. The enzyme blend for fermentation was added to the slurry. Urea (50 percent liquor) was added to the slurry to give a final concentration of approximately 1000 ppm urea. The slurry was dispensed in 100 milliliter wide mouth bottles at 60 milliliters per bottle. The bottles were covered with a bottle cap with a 1/16″ hole drilled into the top for gas release following addition of enzyme and inoculation of the necessary organisms and placed stationary in a water bath. The fermentation temperature was held constant at 32.2 degrees Celsius for 8-16 hours. This yeast propagation was then used to inoculate fermentations including yeast at a ratio level of 2% total fermentation volume.
# (§2) Liquefied corn slurry was acquired from a biorefinery with 30-35% percent dry solids (including the solids contributed by the pre-blend water). The pH of the slurry was approximately 5.0. The enzyme blend for fermentation was added to the slurry. Urea (50 percent liquor) was added to the slurry to give a final concentration of approximately 1000 ppm urea. The slurry was mixed in 100 milliliter wide mouth bottles at 60 milliliters per bottle. The bottles were covered with a bottle cap with a 1/16″ hole drilled into the top for gas release following addition of enzyme and inoculation of the necessary organisms and placed stationary in a water bath. The fermentation temperature was held constant at 33 degrees Celsius for 72 hours. Bottles were mixed well, and samples were withdrawn at various intervals during the course of fermentation and analyzed for sugars, organic acids and ethanol using high performance liquid chromatography (HPLC).
# lactic acid bacteria [2] = conditions: cook process fermentation, infected, formic acid 100-400 ppm without hop acids (FIG. 4)
# Procedure: as §1, §2
# Saccharomyces cerevisiae [3] = conditions: RSH fermentation, infected samples, formic acid alone 100-400 ppm, compared to other infected samples (FIG. 1)
# Procedure: (§3) Saccharomyces cerevisiae, yeast was added to a yeast propagation set up as follows. Ground corn was mixed with “pre-blend” (a mixture of the waters from various streams that are reused in an ethanol production facility) in an appropriate ratio to obtain slurry (mash) with 35 percent dry solids (including the solids contributed by the pre-blend water). “Preblend” was used as make up water in these studies to simulate the composition of mash, employing an exemplary embodiment provided herein, as it would be in a commercial ethanol production facility. The pH of the corn and “pre blend” slurry was approximately 4.5-4.8. An enzyme blend for raw starch hydrolysis was added to the slurry. Urea (50 percent liquor) was added to the slurry to give a final concentration of approximately 1000 ppm urea. The slurry was mixed in 100 milliliter wide mouth bottles at 60 milliliters per bottle. The bottles were covered with a bottle cap with a 1/16″ hole drilled into the top for gas release following addition of enzyme and the yeast and placed stationary in a water bath. […]
# (§4) The slurry was mixed in 100 milliliter wide mouth bottles at 60 milliliters per bottle. […] Bottles were mixed well, and samples were withdrawn at various intervals during the course of fermentation and analyzed for sugars, organic acids and ethanol using high performance liquid chromatography (HPLC).
# lactic acid bacteria [4] = conditions: RSH fermentation, infected samples, formic acid alone 100-400 ppm (FIG. 2)
# Procedure: as §3, §4
smiles,measurement,setting,value
O=CO [formic acid],"% v/v ethanol at 72 hours, vs Phibro Xact 2.5 ppm","Saccharomyces cerevisiae [1]; formic acid treated samples, at most dosages (FIG. 3)",greater than the % v/v ethanol generated by fermentation with Phibro Xact
same,% v/v ethanol at 72 hours,Saccharomyces cerevisiae [1]; increasing doses of formic acid alone 100-400 ppm (FIG. 3),increase in % v/v ethanol
same,Ppm lactic acid at 72 hours,lactic acid bacteria [2],decreased dose dependently
same,% v/v ethanol at 88 hours,Saccharomyces cerevisiae [3],substantially reduced % v/v ethanol
same,ppm lactic acid at 88 hours,lactic acid bacteria [4],reduced lactic acid ppm at 88 hours fermentation in a dose dependent method
